Experimental data taken from patent US20030003485A1, “Methods for identifying antigens” (Ludwig Institute for Cancer Research, priority 2001, published 2003).
Ends that are not written are not given here.

Key:
Format in all cases: cell-based, mouse
[1] = system: AT-1 CTL; assay: IFNγ ELISA of AT-1 CTL stimulated with transfected or peptide-pulsed CMS8 cells; conditions: 1.0 μM synthetic peptide, 24 hr
Description: FIG. 8 depicts deletion mutants and introduction of point mutations in S35. IFNγ production in the supernatant secreted by AT-1 CTL against various constructs was determined by ELISA after culture for 24 hr with transfected CMS8 cells. PCR fragments with deletion were amplified from S35 cDNA and cloned into pCI-neo vector with EcoR I and Sal I sites. Point mutations at nt 699 (A to C) and nt 701 (G to A) in Exp. III were introduced using site-directed mutagenesis kits.
9-mer overlapping peptides were synthesized in the ORF of the third reading frame (“3RF”) of S35. 1×10^4 AT-1 cells were cultured with 1×10^4 CMS8 cells in the presence of 1.0 μM synthetic peptides for 24 hr and IFNγ in the supernatant was measured by ELISA. H-2D^d peptide motifs are shown as XGPXXXXXL (SEQ ID NO: 26) and XGAXXXXXL (SEQ ID NO:27). The synthetic peptides are MERTPIQLGAEAIFRLVLM (SEQ ID NO:15); MERTPIQLG (SEQ ID NO:16); ERTPIQLGA (SEQ ID NO:17); RTPIQLGAE (SEQ ID NO:18); TPIQLGAEA (SEQ ID NO:19); PIQLGAEAI (SEQ ID NO:20); IQLGAEAIF (SEQ ID NO:21); QLGAEAIFR (SEQ ID NO:22); LGAEAIFRL (SEQ ID NO:10); GAEAIFRLV (SEQ ID NO: 23); AEAIFRLVL (SEQ ID NO:24); and EAIFRLVLM (SEQ ID NO:25).
IFNγ ELISA. CTL were stimulated with targets for 18 hr. and IFNγ in the culture supernatant was assayed by the sandwich ELISA. […]

[2] = system: AT-1 CTL; assay: Cytotoxicity assay (4 hr 51Cr release) with AT-1 CTL
Description: In FIG. 10A, CMS8 cells were ^51Cr labeled and pulsed with the peptide at different concentrations. Cytotoxicity was determined by 4 hr ^51Cr release assay. Effector to target cell ratio was 10. In FIG. 10B, 1×10^4 AT-1 CTL was stimulated with 1×10^4 CMS8 cells in the presence of the 1.0 μM peptide. IFNγ in the supernatant was measured by ELISA.
Cytotoxicity assay. Tumor cells were labeled by incubating 2×10^6 cells with 2 MBq of Na2^51CrO4 (New England Nuclear, Boston, Mass.) in 0.3 ml of medium for 90 min at 37° C. under a 5% CO2 in air. The cells were washed and used as targets. For peptide sensitization, labeled target cells were incubated with peptides at 37° C. for 30 min […]. In direct assays, 10^4 labeled target cells (100 μl) were incubated with effector cells (100 μl) cells. In antibody blocking assays, serially diluted mAb (100 μl) was added to the mixture of effector cells and 10^4 labeled target cells (100 μl). After incubation for 4 hr at 37° C. under a 5% CO2 in air, the supernatants were removed and their radioactivity was measured. The percentage of specific lysis was calculated by the following equation: (a−b)×100/(c−b), where a is the radioactivity in the supernatant of target cells mixed with effector cells, b is that in the supernatant of target cells incubated alone, and c is that in the supernatant after lysis of target cells with 1% NP-40.

[3] = system: CTL clone B-24; assay: IFNγ ELISPOT assay with CTL clone B-24, peptide-pulsed stimulator cells and antibody blocking; conditions: 5,000 B-24 cells, 10,000 CMS8 stimulator cells pulsed with peptide, 96-well plates
Description: ELISPOT assay. […] CTL were incubated with stimulator cells on the coated membrane in 96- or 24-well plates for 18 hr at 37° C. under 5% CO2 in air. After culture, the membranes were thoroughly washed with distilled water and incubated with detection antibody for 90 min at 37° C. The IFNγ spots were developed by alkaline phosphatase-conjugated substrate kit (Bio-Rad, Hercules, Calif.) and counted with a dissecting microscope.

[4] = system: CTL clone B-24; assay: Cytotoxicity assay (51Cr release) with CTL clone B-24; conditions: peptide pulsed P1.HTR target cells
Description: Cytotoxicity assay. Tumor cells were labeled by incubating 2×10^6 cells with 2 MBq of Na2^51CrO4, (New England Nuclear, Boston, Mass.) in 0.3 ml of medium for 90 min at 37° C. under 5% CO2 in air. The cells were washed and used as targets. […] In antibody blocking assays, serially diluted mAb (100 μl) was added to the mixture of effector cells and 10^4 labeled target cells (100 μl). After incubation for 3.5 hr at 37° C. under 5% CO2 in air, the supernatants were removed and their radioactivity was measured. The percentage of specific lysis was calculated by the following equation: (a-b)/(c-b)×100, where a is the radioactivity in the supernatant of target cells mixed with effector cells, b is the radioactivity in the supernatant of target cells incubated alone, and c is the radioactivity in the supernatant after lysis of target cells with 1% NP-40.

[5] = system: AT-1 CTL; assay: IFNγ ELISPOT assay with AT-1 CTL
Text: Transfection. Recombinant plasmids were purified by Wizard Plus Series 9600™ DNA purification system (Promega, Co., Madison, Wis.) after amplification of bacteria and transfected into 1×10^5 or 1×10^4 cells 24- or 96-well plates, respectively, with plasmid pdl3027 containing the polyoma T antigen (Dailey and Basilico, J. Virol. 54:739-749, 1985) using lipofectamine (GIBCO BRL, Rockville, Md.). After culture for 24 hr, the transfected cells were collected and plated onto anti-IFNγ mAb-coated nitrocellulose membranes in culture plates. AT-1 CTL were then added for ELISPOT assay.
ELISPOT assay. Nitrocellulose disk membranes (14 mm diameter) and 96-well nitrocellulose membrane-based plates (Millipore S4510, Millipore Corp., Bedford, Mass.) were coated with anti-IFNγ mAb (R4-6A2) in 0.05 M bicarbonate buffer (pH 9.6) at 4° C. overnight. After washing, membranes were blocked with RPMI 1640 containing 10% FCS and 50 μM 2-mercaptoethanol for 60 min at 37° C. CTL were incubated with stimulator cells on the coated membrane in 24- or -96well plates for 18 hr at 37° C. under a 5% CO2 in air. […] The IFNγ spots were developed by alkaline phosphatase-conjugated anti-rabbit IgG antibody and substrate kit (Bio-Rad, Hercules, Calif.) and counted with a dissecting microscope.

Molecule: LGAEAIFRL (listed as Mus musculus)
- stimulation of AT-1 for IFNγ production by peptide pulsed CMS8 cells [1]: stimulation was observed
- inhibition of Meth A (sv) lysis by AT-1 CTL by peptide pulsed P815 [2]: completely inhibited
- peptide concentration at which AT-1 CTL lysis of peptide pulsed CMS8 was detected ([2]; 4 hr 51Cr release, effector to target cell ratio 10): 20 to 30 nM

Molecule: LSPFPFDL [p2Ca]
- number of IFNγ spots [3]: no spot

Molecule: ISTQNHRALDLVA (listed as Mus musculus) [T2H]
- number of IFNγ spots [3]: no spot

Molecule: IPGLPLSL [pRL1a, IPGLPLSL]
- cytotoxicity of B-24 against peptide pulsed P1.HTR [4]: showed cytotoxicity

B1: S35: cDNA clone, 937 bp long, from Meth A (sv) cDNA library, coding for antigen recognized by AT-1 (nucleic acid, listed as Mus musculus)
DNA: TTAAAAGGGAGATGGAAAGGACTCCAATCCAATTAGGGGCAGAAGCTATCTTTAGACTAGTACTAATGTGGTGAGTATCCTGCCTCACTTAACATCCTTAACCTAGCCTGTGCTTCAGGGAAAGGAAACAAAAGATAGATATATAAAGGCTATTTACTCTGCAAGCCAAACCAAAATTTTGGTACAGAAAATGACAAAGTTTCTTTTTCTCAATAGTAGGAATGTTCTGTGTTCCTAGCCAAAAATTTGTCATCAGTGTCCCTGTGGCTCCCATCTGTCTTTCCTGACCCCCATGATTACTTTTCACTGACAATATAAATCTTAAAAAGCTTTGAGACCAGTGTGCTGATCTAGTTTTTTAAGTTTTGGGTTTTGTTGTTGTGTTTTGGTTTTGGTGTTTTTACGTTTTATTGACTTACAAGCTTTCACTATGTATCCCAGACTGGCTTTGAACTCAGGACCTTCCTGCCTTAGTCTCCCAGGTGCTGAGATTGTGGGGCTGTGTCACTATATTACAACTAATATTTATCAGAAAAATGTTCCTTTTTTGGAAGAAAATGAAGAAAGTGCTGTTTTTGCACTTATCAATTGAGGGGCTGATTTTGATTCGCTCAAGAAAATAGCAGTTTTAACCTAGACATTTGCTGTGGGGACTTGGAACTTTAACTTGGGGTGTCGCTAACTCTACGCTTTCTTCTAGGTCACCATTACTCCCAGCTCCATGAGGAAGATATGTACATACTTTCGTAGAAAGACTCAAGATGACTTCTGCAGTCCTGAACACTCAACTGAATTATAGATGCTAATCTGAAGTTCATTGAACTTGGGTCTACAAAGATTTTTTAAAAAGGCTTTAAAATTCTGGTCTTTAAGAAAATGGTCATCTTTTCATTTTGGAAAAAGTCCTTCTACTCTTTAGCAGACCTAGTCAGGCCCC
- stimulation of AT-1 by cells transfected with cDNA clone ([5]; CMS5a, CMS8 and CMS13, or H-2D^d-transfected L cells): stimulated
- stimulation of AT-1 by cells transfected with cDNA clone ([5]; H-2L^d-transfected L cells): not
